Where a name gives a salt, the structure may show the parent alone.

The test concerns the target T1, hTRPC5 (Homo sapiens, UniProt Q9UL62).
T1 construct: expressed in transfected cells; host or cells: HEK293 TREx cells with inducible TRPC5 expression
T1 sequence (Q9UL62 1-973): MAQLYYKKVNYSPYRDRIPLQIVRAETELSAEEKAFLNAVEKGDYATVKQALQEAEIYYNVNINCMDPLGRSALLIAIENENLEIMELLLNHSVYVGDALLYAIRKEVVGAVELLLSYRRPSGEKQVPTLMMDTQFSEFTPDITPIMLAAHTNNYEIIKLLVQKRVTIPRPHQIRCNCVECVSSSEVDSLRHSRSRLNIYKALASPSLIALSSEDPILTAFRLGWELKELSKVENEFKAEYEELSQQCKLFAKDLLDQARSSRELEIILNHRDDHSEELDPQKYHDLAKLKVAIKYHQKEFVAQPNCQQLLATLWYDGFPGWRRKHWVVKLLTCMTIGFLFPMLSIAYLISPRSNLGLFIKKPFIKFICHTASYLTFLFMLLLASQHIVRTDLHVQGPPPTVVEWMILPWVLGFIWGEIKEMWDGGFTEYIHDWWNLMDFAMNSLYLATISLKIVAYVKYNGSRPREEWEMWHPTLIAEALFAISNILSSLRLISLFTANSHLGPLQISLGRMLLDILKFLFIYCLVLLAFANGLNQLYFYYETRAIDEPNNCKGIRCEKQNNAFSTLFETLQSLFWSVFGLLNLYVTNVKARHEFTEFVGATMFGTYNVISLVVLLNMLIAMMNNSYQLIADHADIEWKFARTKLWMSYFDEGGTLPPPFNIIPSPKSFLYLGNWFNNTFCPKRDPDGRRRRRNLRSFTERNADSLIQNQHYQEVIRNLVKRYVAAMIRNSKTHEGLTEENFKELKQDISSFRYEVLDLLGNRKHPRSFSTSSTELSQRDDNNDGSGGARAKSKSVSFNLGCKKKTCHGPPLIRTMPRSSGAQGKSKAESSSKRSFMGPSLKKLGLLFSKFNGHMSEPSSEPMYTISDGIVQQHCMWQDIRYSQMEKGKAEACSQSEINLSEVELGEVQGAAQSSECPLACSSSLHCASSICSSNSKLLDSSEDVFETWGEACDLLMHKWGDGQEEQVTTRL
Briefly: Whole-cell patch clamp, block of LaCl3-activated TRPC5 inward current. It is filed as cell-based. To be noted: TRPC5-expressing HEK293 TREx cells, 80 μM LaCl3, inward current, IC50 estimated from 5 μM and 500 nM, read-out: hTRPC5 Patch La3+ Inwd (nM) (All Batches). The protocol: In certain embodiments, exemplary compounds of Formula I and Formula II include the compounds described in Table 1 and in the Examples. A compound described herein may be tested for its ability to block both inward and outward currents through the TRPC5 channel, e.g., by an assay as described in Example 1. For example, IC50 of a compound of Formula I or Formula II was estimated by testing the compound at 5 μM and 500 nM. […] IC50 for a compound of Formula I or Formula II between 500 nM and 5 μM was similarly estimated. As shown, “A” refers to an IC50<100 nM. “B” refers to an IC50 between 100 nM and 500 nM. “C” refers to an IC50 between 500 nM and 1000 nM. “D” refers to an IC50 between 1 μM and 2 μM. “E” refers to an IC50 between 2 μM and 10 μM. “F” refers to […]. “ND” refers to compounds wherein the IC50 was not determined.
Patch clamp experiments permit the detection of currents through the TRPC5 channel in the cell line described above. In normal whole-cell patch clamp recordings, a glass electrode is brought into contact with a single cell and a high-resistance (gigaohm) seal is established with the cell membrane. The membrane is then ruptured to achieve the whole-cell configuration, permitting control of the voltage of the cell membrane and measurement of currents flowing across the membrane using the amplifier attached to the electrode and resulting in the replacement of cytoplasm with the pipette solution. A perfusion system permits control of the extracellular solution, including the addition of blockers and activators of the current. The current can be activated by including 1.4 μM free Ca^2+ in the pipette (intracellular) solution, and 80 μM LaCl3 in the extracellular solution.
TRPC5 cells were induced 20-48 hours, removed from growth plates, and replated at low density (to attain good single-cell physical separation) on glass coverslips for measurement. In some cases, cells were grown in low density overnight on glass coverslips. Patch clamp recordings were made in the whole-cell mode with a holding potential of −40 mV. Every 5 seconds, a voltage ramp was applied from −120 to +100 mV, 400 ms in duration. Currents elicited were quantified at −80 mV and +80 mV. The internal solution consisted of 140 mM cesium aspartate, 10 mM HEDTA, 2 mM CaCl2, 2.27 mM MgCl2 and 10 mM HEPES, pH 7.2, with 1,400 nM calculated free Ca^2+. The external solution consisted of 150 mM NaCl, 4.5 mM KCl, 1 mM MgCl2, 2 mM CaCl2, 10 mM HEPES, 10 mM glucose, 1 mM EGTA, pH 7.4. Upon addition of LaCl3, TRPC5 current was induced only in TRPC5-expressing cells and not in parental HEK293 TREx cells. Removal of the LaCl3 stimulus causes most of the current to go away. Potential blockers were tested for ability to block both inward and outward currents in the continued presence of LaCl3.
IC50 of a compound of Formula I or Formula II was estimated by testing the compound at 5 μM and 500 nM. […] IC50 for a compound of Formula I or Formula II between 500 nM and 5 μM was similarly estimated.
Turning to `CCOC(=O)Cc1nc2c(c(=O)n(C)c(=O)n2C)n1Cc1cccc(Br)c1` [Compound 34, Ethyl 2-(7-(3-bromobenzyl)-1,3-dimethyl-2,6-dioxo-2,3,6,7-tetrahydro-1H-purin-8yl)acetate], the IC50 was 2000 to 10000 nM.

On to `Cn1c(=O)c2c(nc(CO)n2Cc2cccc(Br)c2)n(C)c1=O` [Compound 35], for which the IC50 is 2000 to 10000 nM.

Turning to `CCOC(=O)/C=C/c1nc2c(c(=O)n(C)c(=O)n2C)n1Cc1cccc(Br)c1` [Compound 36], the IC50 is 2000 to 10000 nM.

For the compound `CCOC(=O)CCc1nc2c(c(=O)n(C)c(=O)n2C)n1Cc1cccc(Br)c1` [Compound 37, ethyl 3-(7-(3-bromobenzyl)-1,3-dimethyl-2,6-dioxo-2,3,6,7-tetrahydro-1H-purin-8-yl)propanoate], the IC50 was 2000 to 10000 nM.

As for `Cn1c(=O)c2c(nc(CC(=O)NCCO)n2Cc2cccc(Br)c2)n(C)c1=O` [Compound 38, 2-(7-(3-Bromobenzyl)-1,3-dimethyl-2,6-dioxo-2,3,6,7-tetrahydro-1H-purin-8-yl)-N-(2-hydroxyethyl)acetamide], the IC50 was 2000 to 10000 nM.

Turning to `Cn1c(=O)c2c(nc(CCO)n2Cc2cccc(Br)c2)n(C)c1=O` [Compound 39, 7-(3-Bromobenzyl)-8-(2-hydroxyethyl)-1,3-dimethyl-1H-purine-2,6(3H,7H)-dione], the IC50 was 2000 to 10000 nM.

On to `Cn1c(=O)c2c(nc(CCCl)n2Cc2cccc(Br)c2)n(C)c1=O` [Compound 40, 7-(3-Bromobenzyl)-8-(2-chloroethyl)-1,3-dimethyl-1H-purine-2,6(3H,7H)-dione], for which the IC50 was 2000 to 10000 nM.

Turning to `C=Cc1nc2c(c(=O)n(C)c(=O)n2C)n1Cc1cccc(Br)c1` [Compound 41, 7-(3-Bromobenzyl)-1,3-dimethyl-8-vinyl-1H-purine-2,6(3H,7H)-dione], the IC50 was 2000 to 10000 nM.

Take `CCCOCCc1nc2c(c(=O)n(C)c(=O)n2C)n1Cc1cccc(Br)c1` [Compound 42, 7-(3-Bromobenzyl)-1,3-dimethyl-8-(2-propoxyethyl)-1H-purine-2,6(3H,7H)-dione]: the IC50 was 1000 to 2000 nM.

Consider `Cn1c(=O)c2c(nc(CCCO)n2Cc2cccc(Br)c2)n(C)c1=O` [Compound 43], for which the IC50 was 2000 to 10000 nM.

Take `CC1CCN(Cc2nc3c(c(=O)n(C)c(=O)n3C)n2Cc2cccc(Br)c2)CC1` [Compound 44]: the IC50 was 2000 to 10000 nM.

For the compound `Cn1c(=O)c2c(nc(COCc3ccccc3)n2Cc2cccc(Br)c2)n(C)c1=O` [Compound 45], the IC50 was 2000 to 10000 nM.

For the compound `CCCNCCc1nc2c(c(=O)n(C)c(=O)n2C)n1Cc1cccc(Br)c1` [Compound 46], the IC50 is 2000 to 10000 nM.

As for `Cn1c(=O)c2c(nc(CCNCc3ccccc3)n2Cc2cccc(Br)c2)n(C)c1=O` [Compound 47, 8-(2-(Benzylamino)ethyl)-7-(3-bromobenzyl)-1,3-dimethyl-1H-purine-2,6(3H,7H)-dione], the IC50 was 2000 to 10000 nM.

Regarding `CCCN(C)CCc1nc2c(c(=O)n(C)c(=O)n2C)n1Cc1cccc(Br)c1` [Compound 48, 7-(3-Bromobenzyl)-1,3-dimethyl-8-(2-(methyl(propyl)amino)ethyl)-1H-purine-2,6(3H,7H)-dione hydrochloride], the IC50 was 2000 to 10000 nM.

Turning to `CCCN(CCc1nc2c(c(=O)n(C)c(=O)n2C)n1Cc1cccc(Br)c1)C(C)=O` [Compound 49], the IC50 is 2000 to 10000 nM.

Consider `CCOC(=O)CCCc1nc2c(c(=O)n(C)c(=O)n2C)n1Cc1cccc(Br)c1` [Compound 50, Ethyl 4-(7-(3-bromobenzyl)-1,3-dimethyl-2,6-dioxo-2,3,6,7-tetrahydro-1H-purin-8-yl)butanoate], for which the IC50 is 1000 to 2000 nM.

As for `CN1CCN(Cc2nc3c(c(=O)n(C)c(=O)n3C)n2Cc2cccc(Br)c2)CC1` [Compound 51], the IC50 was 2000 to 10000 nM.

As for `Cn1c(=O)c2c(nc(CN3CCOCC3)n2Cc2cccc(Br)c2)n(C)c1=O` [Compound 52], the IC50 was 2000 to 10000 nM.

As to `CCNCCCc1nc2c(c(=O)n(C)c(=O)n2C)n1Cc1cccc(Br)c1` [Compound 53], the IC50 was 2000 to 10000 nM.

Consider `CCOCCCc1nc2c(c(=O)n(C)c(=O)n2C)n1Cc1cccc(Br)c1` [Compound 54, 7-(3-bromobenzyl)-8-(3-ethoxypropyl)-1,3-dimethyl-1H-purine-2,6(3H,7H)-dione], for which the IC50 was 2000 to 10000 nM.

For the compound `CCCCOCc1nc2c(c(=O)n(C)c(=O)n2C)n1Cc1cccc(Br)c1` [Compound 55, 7-(3-bromobenzyl)-8-(butoxymethyl)-1,3-dimethyl-1H-purine-2,6(3H,7H)-dione], the IC50 was 500 to 1000 nM.

As for `CCOCC(C)(C)Sc1nc2c(c(=O)n(C)c(=O)n2C)n1Cc1cccc(Br)c1` [Compound 56, 7-(3-bromobenzyl)-8-(1-ethoxy-2-methylpropan-2-ylthio)-1,3-dimethyl-1H-purine-2,6(3H,7H)-dione], the IC50 is 1000 to 2000 nM.

On to `CCOC(=O)c1cccc(Oc2nc3c(c(=O)n(C)c(=O)n3C)n2Cc2cccc(Br)c2)c1` [Compound 57, Ethyl 3-(7-(3-bromobenzyl)-1,3-dimethyl-2,6-dioxo-2,3,6,7-tetrahydro-1H-purin-8-yloxy)benzoate], for which the IC50 is < 100 nM.

With `Cn1c(=O)c2c(nc(SCc3ccccc3F)n2Cc2ccc(Cl)c(Cl)c2)n(C)c1=O` [Compound 58], the IC50 was 100 to 500 nM.

For the compound `Cn1c(=O)c2c(nc(SCCCC#N)n2Cc2cccc(Cl)c2)n(C)c1=O` [Compound 62], the IC50 is 1000 to 2000 nM.

Take `CN(Cc1ccccc1)c1nc2c(c(=O)n(C)c(=O)n2C)n1Cc1ccc(Cl)c(Cl)c1` [Compound 67]: the IC50 is 2000 to 10000 nM.

As for `Cn1c(=O)c2c(nc(Oc3cccc(C(F)(F)F)c3)n2Cc2ccc(Cl)cc2)n(C)c1=O` [Compound 73], the IC50 is 100 to 500 nM.

For `CCc1ccccc1Oc1nc2c(c(=O)n(C)c(=O)n2C)n1Cc1ccc(Cl)cc1` [Compound 74], the IC50 was 100 to 500 nM.

Consider `Cc1ccc(Oc2nc3c(c(=O)n(C)c(=O)n3C)n2Cc2cccc(Cl)c2)cc1` [Compound 76], for which the IC50 was 2000 to 10000 nM.

`Cn1c(=O)c2c(nc(CCCN3CCCC3)n2Cc2cccc(Br)c2)n(C)c1=O` [Compound 81]: the IC50 is 2000 to 10000 nM.

Take `CCCOCCCc1nc2c(c(=O)n(C)c(=O)n2C)n1Cc1cccc(Br)c1` [Compound 82, 7-(3-bromobenzyl)-1,3-dimethyl-8-(3-propoxypropyl)-1H-purine-2,6(3H,7H)-dione]: the IC50 was 1000 to 2000 nM.

Consider `CCOC(=O)C(C)(C)CCc1nc2c(c(=O)n(C)c(=O)n2C)n1Cc1cccc(Br)c1` [Compound 83], for which the IC50 was 2000 to 10000 nM.
